The source of these data is ChEMBL document CHEMBL1134747, “Synthesis and antifungal activities of novel 1,3-beta-D-glucan synthase inhibitors. Part 1” (Bioorg Med Chem Lett, 2001).

Structures are written as SMILES. In brackets after ≈: the same amount, converted by molar mass.

One assay has as its target Beta-1,3-glucan synthase (Candida albicans, UniProt O13428). In words: Inhibition of 1,3-beta-D-glucan synthase (GS) from candida albicans.
In assay [1] the test system is Candida albicans. In words: In vitro antifungal activity against Candida albicans CY1002 in the presence of 80% calf serum. Format: functional, organism-based.
Assay [2] deals with Candida albicans. Briefly: In vitro antifungal activity against Candida albicans […] in the absence of 80% calf serum. Format: functional, organism-based.
A short description of assay [3]: Hepatotoxicity using isolated ICR mouse hepatocytes by inclusion body formation assay (In Vitro). Type of assay: functional, cell-based. Particulars: Hepatocyte.
For another assay, the system named is Mus musculus. Briefly: In vivo antifungal activity against systemic candidiasis in mouse model after a single iv administration. Format: functional.
Assay [4] in a line: Hepatotoxicity determined using isolated ICR mouse hepatocytes by inclusion body formation assay (In Vitro). Format: functional, cell-based. Particulars: Hepatocyte.

Chain of Beta-1,3-glucan synthase (O13428 whole entry): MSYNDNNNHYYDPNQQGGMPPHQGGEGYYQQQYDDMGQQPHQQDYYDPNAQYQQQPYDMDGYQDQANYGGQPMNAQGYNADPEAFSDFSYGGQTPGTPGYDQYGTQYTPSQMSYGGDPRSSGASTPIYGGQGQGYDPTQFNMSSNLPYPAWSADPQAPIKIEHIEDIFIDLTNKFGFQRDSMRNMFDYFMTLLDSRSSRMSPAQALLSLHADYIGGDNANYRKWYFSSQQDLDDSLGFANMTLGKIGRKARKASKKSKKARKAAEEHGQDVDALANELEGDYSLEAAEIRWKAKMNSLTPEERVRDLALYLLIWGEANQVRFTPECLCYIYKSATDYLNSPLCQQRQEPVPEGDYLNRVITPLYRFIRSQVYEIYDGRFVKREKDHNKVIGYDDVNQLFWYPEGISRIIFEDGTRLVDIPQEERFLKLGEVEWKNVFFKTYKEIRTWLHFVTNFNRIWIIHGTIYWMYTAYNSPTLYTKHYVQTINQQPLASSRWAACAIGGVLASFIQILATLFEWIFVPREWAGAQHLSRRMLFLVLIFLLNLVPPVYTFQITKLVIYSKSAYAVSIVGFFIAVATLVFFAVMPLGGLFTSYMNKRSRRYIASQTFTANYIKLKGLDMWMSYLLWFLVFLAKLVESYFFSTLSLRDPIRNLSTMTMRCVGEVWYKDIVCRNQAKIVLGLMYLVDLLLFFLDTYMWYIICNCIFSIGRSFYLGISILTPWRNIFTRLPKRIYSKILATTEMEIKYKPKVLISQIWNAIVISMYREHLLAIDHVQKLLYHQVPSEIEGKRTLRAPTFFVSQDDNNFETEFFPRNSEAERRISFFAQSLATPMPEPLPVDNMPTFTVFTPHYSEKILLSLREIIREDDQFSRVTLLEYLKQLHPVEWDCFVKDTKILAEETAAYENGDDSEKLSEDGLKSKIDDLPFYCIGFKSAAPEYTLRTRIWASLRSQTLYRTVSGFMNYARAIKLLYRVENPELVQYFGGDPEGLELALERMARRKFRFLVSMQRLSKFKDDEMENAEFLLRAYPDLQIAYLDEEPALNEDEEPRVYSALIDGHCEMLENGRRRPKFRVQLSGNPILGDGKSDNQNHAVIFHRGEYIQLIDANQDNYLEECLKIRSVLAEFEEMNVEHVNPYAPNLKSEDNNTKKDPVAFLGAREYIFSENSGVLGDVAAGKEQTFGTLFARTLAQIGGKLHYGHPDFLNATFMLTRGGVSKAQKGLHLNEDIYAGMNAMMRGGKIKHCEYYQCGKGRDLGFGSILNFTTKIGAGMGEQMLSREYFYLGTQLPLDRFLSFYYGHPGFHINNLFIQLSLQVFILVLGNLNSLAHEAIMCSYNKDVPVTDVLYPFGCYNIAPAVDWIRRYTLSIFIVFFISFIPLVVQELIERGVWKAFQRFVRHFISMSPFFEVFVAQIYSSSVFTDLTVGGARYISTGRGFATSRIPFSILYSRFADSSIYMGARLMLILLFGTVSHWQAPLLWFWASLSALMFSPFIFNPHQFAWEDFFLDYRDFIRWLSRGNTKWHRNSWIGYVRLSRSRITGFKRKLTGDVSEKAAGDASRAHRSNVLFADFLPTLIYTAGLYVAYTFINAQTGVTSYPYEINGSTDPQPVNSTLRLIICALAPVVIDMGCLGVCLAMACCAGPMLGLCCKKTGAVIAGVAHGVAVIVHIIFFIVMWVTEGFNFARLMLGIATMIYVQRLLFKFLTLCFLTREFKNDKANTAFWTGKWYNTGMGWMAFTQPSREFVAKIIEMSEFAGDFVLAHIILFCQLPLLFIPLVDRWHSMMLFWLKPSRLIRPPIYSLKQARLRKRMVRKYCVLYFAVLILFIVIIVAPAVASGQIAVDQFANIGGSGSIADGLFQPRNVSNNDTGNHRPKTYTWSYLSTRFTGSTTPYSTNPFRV

Usually IC50 stands for the concentration that inhibits the measured activity by half. `CCCCCCCCCCCCC[C@@H]1CC(=O)N[C@@H]([C@@H](C)O)C(=O)N[C@H](C)C(=O)N[C@@H](Cc2ccc(O)cc2)C(=O)N[C@@H](C(C)C)C(=O)N2C[C@H](O)C[C@H]2C(=O)N[C@@H]([C@@H](C)O)C(=O)N[C@@H]([C@@H](C)O)C(=O)N2CC[C@H](O)[C@H]2C(=O)N[C@@H]([C@H](O)CC(N)=O)C(=O)NCC(=O)N[C@H]([C@@H](C)O)C(=O)N[C@@H](CCCNC(=O)CN)C(=O)O1` displayed an IC50 on Beta-1,3-glucan synthase of 20 nM.
As usually defined, the ED50 is the midpoint of the dose-response relation. Low values mean greater potency, high ones weaker potency. With `CCCCCCCCCCCCC[C@@H]1CC(=O)N[C@@H]([C@@H](C)O)C(=O)N[C@H](C)C(=O)N[C@@H](Cc2ccc(O)cc2)C(=O)N[C@@H](C(C)C)C(=O)N2C[C@H](O)C[C@H]2C(=O)N[C@@H]([C@@H](C)O)C(=O)N[C@@H]([C@@H](C)O)C(=O)N2CC[C@H](O)[C@H]2C(=O)N[C@@H]([C@H](O)CC(N)=O)C(=O)NCC(=O)N[C@@H]([C@@H](C)O)C(=O)N[C@H](CCCNC(=O)C(N)CCCN)C(=O)O1` (some centres not stated), the IC50 with Candida albicans [1] is 0.33 µg/mL; with Candida albicans [2], 0.12 µg/mL (≈ 0.0728 µM); against Beta-1,3-glucan synthase it was 5 nM; in assay [3] it was 30 µg/mL (≈ 18.2 µM). Besides, the ED50 in the assay with Mus musculus turned out to be 0.1 mg/kg.
`CCCCCCCCCCCCC[C@@H]1CC(=O)N[C@@H]([C@@H](C)O)C(=O)N[C@H](C)C(=O)N[C@@H](Cc2ccc(OC)cc2)C(=O)N[C@@H](C(C)C)C(=O)N2C[C@H](O)C[C@H]2C(=O)N[C@@H]([C@@H](C)O)C(=O)N[C@@H]([C@@H](C)O)C(=O)N2CC[C@H](O)[C@H]2C(=O)N[C@@H]([C@H](O)CC(N)=O)C(=O)NCC(=O)N[C@@H]([C@@H](C)O)C(=O)N[C@@H](CCCN)C(=O)O1`: the IC50 against Beta-1,3-glucan synthase stood at 24 nM.
Take `CCCCCCCCCCCCC[C@@H]1CC(=O)N[C@@H]([C@@H](C)O)C(=O)N[C@H](C)C(=O)N[C@@H](Cc2ccc(O)cc2)C(=O)N[C@@H](C(C)C)C(=O)N2C[C@H](O)C[C@H]2C(=O)N[C@@H]([C@@H](C)O)C(=O)N[C@@H]([C@@H](C)O)C(=O)N2CC[C@H](O)[C@H]2C(=O)N[C@@H]([C@H](O)CC(N)=O)C(=O)NCC(=O)N[C@@H]([C@@H](C)O)C(=O)N[C@@H](CCCNC(=O)OC(C)(C)C)C(=O)O1`: it took a dose of 0.22 mg/kg to reach the 50% effect level in the assay on Mus musculus (ED50).
For the compound `CCCCCCCCCCCCC[C@@H]1CC(=O)N[C@@H]([C@@H](C)O)C(=O)N[C@H](C)C(=O)N[C@@H](Cc2ccc(O)cc2)C(=O)N[C@@H](C(C)C)C(=O)N2C[C@H](O)C[C@H]2C(=O)N[C@@H]([C@@H](C)O)C(=O)N[C@@H]([C@@H](C)O)C(=O)N2CC[C@H](O)[C@H]2C(=O)N[C@@H]([C@H](O)CC(N)=O)C(=O)NCC(=O)N[C@H]([C@@H](C)O)C(=O)N[C@@H](CCCN(CCN)CCN)C(=O)O1`, the IC50 came out at 0.42 µg/mL in the assay with Candida albicans [1], 0.1 µg/mL (≈ 0.0617 µM) in the assay on Candida albicans [2], 2 nM against Beta-1,3-glucan synthase and 10 µg/mL (≈ 6.17 µM) in assay [4]. The compound further yielded a 50% effective dose (ED50) with Mus musculus of 0.05 mg/kg.
As for `CCCCCCCCCCCCC[C@@H]1CC(=O)N[C@@H]([C@@H](C)O)C(=O)N[C@H](C)C(=O)N[C@@H](Cc2ccc(O)cc2)C(=O)N[C@@H](C(C)C)C(=O)N2C[C@H](O)C[C@H]2C(=O)N[C@@H]([C@@H](C)O)C(=O)N[C@@H]([C@@H](C)O)C(=O)N2CC[C@H](O)[C@H]2C(=O)N[C@@H]([C@H](O)CC(N)=O)C(=O)NCC(=O)N[C@@H]([C@@H](C)O)C(=O)N[C@@H](CCCN)C(=O)O1`, the 50% inhibitory concentration (IC50) in the assay with Candida albicans [1] came out at 0.57 µg/mL; in the assay on Candida albicans [2] it was 0.02 µg/mL (≈ 0.013 µM); against Beta-1,3-glucan synthase it was 12 nM; in assay [3] it was 10 µg/mL (≈ 6.52 µM).
`CCCCCCCCCCCCC[C@@H]1CC(=O)N[C@@H]([C@@H](C)O)C(=O)N[C@H](C)C(=O)N[C@@H](Cc2ccc(O)cc2)C(=O)N[C@@H](C(C)C)C(=O)N2C[C@H](O)C[C@H]2C(=O)N[C@@H]([C@@H](C)O)C(=O)N[C@@H]([C@@H](C)O)C(=O)N2CC[C@H](O)[C@H]2C(=O)N[C@@H]([C@H](O)CC(N)=O)C(=O)NCC(=O)N[C@@H]([C@@H](C)O)C(=O)N[C@@H](CCCN(C)C)C(=O)O1`: on Beta-1,3-glucan synthase, 45 nM corresponded to half-maximal inhibition (IC50).
On the same count and under the same terms, the value for `CCCCCCCCCCCCC[C@@H]1CC(=O)N[C@@H]([C@@H](C)O)C(=O)N[C@H](C)C(=O)N[C@@H](Cc2ccc(O)cc2)C(=O)N[C@@H](C(C)C)C(=O)N2C[C@H](O)C[C@H]2C(=O)N[C@@H]([C@@H](C)O)C(=O)N[C@@H]([C@@H](C)O)C(=O)N2CC[C@H](O)[C@H]2C(=O)N[C@@H]([C@H](O)CC#N)C(=O)NCC(=O)N[C@@H]([C@@H](C)O)C(=O)N[C@@H](CCN)C(=O)O1` was 19 nM.
For the compound `CCCCCCCCCCCCC[C@@H]1CC(=O)N[C@@H]([C@H](C)O)C(=O)N[C@H](C)C(=O)N[C@@H](Cc2ccc(O)cc2)C(=O)N[C@@H](C(C)C)C(=O)N2C[C@H](O)C[C@H]2C(=O)N[C@@H]([C@@H](C)O)C(=O)N[C@@H]([C@@H](C)O)C(=O)N2CC[C@H](O)[C@H]2C(=O)N[C@@H]([C@H](O)CC(N)=O)C(=O)NCC(=O)N[C@@H]([C@@H](C)O)C(=O)N[C@@H](CCCNC(C)=O)C(=O)O1`, on Beta-1,3-glucan synthase, the IC50 came to 230 nM.
With `CCCCCCCCCCCCC[C@@H]1CC(=O)N[C@@H]([C@@H](C)O)C(=O)N[C@H](C)C(=O)N[C@@H](Cc2ccc(O)cc2)C(=O)N[C@@H](C(C)C)C(=O)N2C[C@H](O)C[C@H]2C(=O)N[C@@H]([C@@H](C)O)C(=O)N[C@@H]([C@@H](C)O)C(=O)N2CC[C@H](O)[C@H]2C(=O)N[C@@H]([C@H](O)CC(N)=O)C(=O)NCC(=O)N[C@@H]([C@@H](C)O)C(=O)N[C@@H](CCCNC(=O)C(N)CCCN)C(=O)O1` (some centres not stated), the 50% inhibitory concentration (IC50) in the assay with Candida albicans [1] amounted to 0.47 µg/mL; in the assay with Candida albicans [2], 0.08 µg/mL (≈ 0.0485 µM); against Beta-1,3-glucan synthase it was 8 nM; in assay [3], 10 µg/mL (≈ 6.07 µM). The same compound came in with a 50% effective dose (ED50) in the assay on Mus musculus of 0.2 mg/kg.
Regarding `CCCCCCCCCCCCC[C@@H]1CC(=O)N[C@@H]([C@H](C)O)C(=O)N[C@H](C)C(=O)N[C@@H](Cc2ccc(OCc3ccccc3)cc2)C(=O)N[C@@H](C(C)C)C(=O)N2C[C@H](O)C[C@H]2C(=O)N[C@H]([C@@H](C)O)C(=O)N[C@@H]([C@@H](C)O)C(=O)N2CC[C@H](O)[C@H]2C(=O)N[C@@H]([C@H](O)CC(N)=O)C(=O)NCC(=O)N[C@@H]([C@@H](C)O)C(=O)N[C@@H](CCCN)C(=O)O1`, on Beta-1,3-glucan synthase, the IC50 was greater than 130 nM.
On to `CCCCCCCCCCCCC[C@@H]1CC(=O)N[C@@H]([C@@H](C)O)C(=O)N[C@H](C)C(=O)N[C@@H](Cc2ccc(O)cc2)C(=O)N[C@@H](C(C)C)C(=O)N2C[C@H](O)C[C@H]2C(=O)N[C@@H]([C@@H](C)O)C(=O)N[C@@H]([C@@H](C)O)C(=O)N2CC[C@H](O)[C@H]2C(=O)N[C@@H]([C@H](O)CCN)C(=O)NCC(=O)N[C@@H]([C@@H](C)O)C(=O)N[C@@H](CCN)C(=O)O1`, for which the IC50 came to 0.18 µg/mL with Candida albicans [1], 0.01 µg/mL (≈ 0.00664 µM) with Candida albicans [2], 6 nM against Beta-1,3-glucan synthase and 10 µg/mL (≈ 6.64 µM) in assay [3]. This compound registered a 50% effective dose (ED50) with Mus musculus of 0.04 mg/kg.
For `CCCCCCCCCCCCC[C@@H]1CC(=O)N[C@@H]([C@@H](C)O)C(=O)N[C@H](C)C(=O)N[C@@H](Cc2ccc(O)cc2)C(=O)N[C@@H](C(C)C)C(=O)N2C[C@H](O)C[C@H]2C(=O)N[C@@H]([C@@H](C)O)C(=O)N[C@@H]([C@@H](C)O)C(=O)N2CC[C@H](O)[C@H]2C(=O)N[C@@H]([C@H](O)CC(N)=O)C(=O)NCC(=O)N[C@@H]([C@@H](C)O)C(=O)N[C@@H](CCCO)C(=O)O1`, the 50% inhibitory concentration (IC50) against Beta-1,3-glucan synthase is greater than 520 nM.
